Results taken from patent publication US11472814B2, “Thienopyranones and furanopyranones as checkpoint inhibitors and modulators of anti-tumor immunity” (SignalRx Pharmaceuticals, Inc., priority 2017, dated 2022).

Legend:
T cells in LLC tumors = test: Quantification of CD3+, CD4+ and CD8+ T cells in LLC tumors; type: in vivo, mice
Source text: Quantification of CD3+, CD4+ and CD8+ T cells in the LLC tumors treated with Compound 3 (n=3, *p<0.05, t test). Conclusion: Compound 3 decreased CD4+ cells by 50% and increased CD8+ T cells in the tumor compartment by 7% in vivo as compared to vehicle control treated mice.

[1] = LLC tumor growth in immunocompetent WT mice; type: in vivo; settings: CT26, LLC and MC38 in immunocompetent mice
Source text: (§1) We investigated the effect of Compound 3 on immune cell in vitro and on tumor growth in in vivo in immunocompetent syngeneic tumor models and the effects on the macrophage and T cell immune compartment in vivo by this compound. […] In order to distinguish whether Compound 3 blocks tumor growth due to its effect on immune cell compartment and not on tumor compartment, we tested the effect of this chemotype on CT26 tumor growth in immunodeficient NSG mice vs immunocompetent Balb/c mice. […] Compound 3 has combinatorial immune-oncologic activity in vivo to stimulate anti-cancer innate and adaptive immunity in well-defined accepted immune competent murine models for cancer immunotherapy.
Compound 3: a novel dual Syk/PI3K inhibitory chemotype: Combinatorial inhibition of Syk and PI3K increases anti-tumor innate and adaptive T cell immune response in vivo. Tumor volume of LLC inoculated subcutaneously in WT mice treated with 10 mg/Kg Compound 3 (n=9, ***p<0.0001, t test). Conclusion: Compound 3 suppressed tumor growth of LLC by 68% in this immunocompetent immune-oncology model system as compared to vehicle control treated mice.
In contrast to above data, Compound 3 has a marked significant inhibitory effect on CT26, LLC and MC38 tumor growth in immunocompetent murine models. Conclusion: this establishes effect of Compound 3 as immune-oncologically active agent in cancer immunotherapy. […]

PI3K γ = target: T1, PI3K γ (Homo sapiens, UniProt P48736); test: PI3K gamma inhibition IC50 (Thermo Fisher); type: biochemical; settings: 10-point curve
T1 construct: purchased Thermo Fisher Scientific-Biosciences Life Sciences Solutions, Madison, Wis; (contract assay service)
Source text: The inhibitory activity of a compound of the invention against PI3K and/or BRD4 and/or SYK and/or CDK4/6 can be readily determined using methods known to the skilled artisan, or by commercial vendors offering such services. […] In vivo, PI3K inhibition can be determined from target tissue biopsies by standard tissue processing to disrupt cells and then performing Western Blot analysis to determine the presence or absence of pAKT (substrate of PI3K) relative to a control sample. The activity of a compound of the invention as an inhibitor of a bromodomain-containing protein, such as a BET protein, such as BRD2, BRD3, BRD4, and/or BRDT, or an isoform or mutant thereof, may be determined in vitro, in vivo, or in a cell line. In vitro assays include assays that determine inhibition of bromodomain-containing proteins. Alternatively, inhibitor binding may be determined by running a competition experiment where a provided compound is incubated with a bromodomain-containing protein, such as a BET protein bound to known ligands, labeled or unlabeled. For example, bromodomain inhibition can be determined in vitro using Alpha Screen Technology (http://www.reactionbiologv.com/webapps/site/NewsPDFs/Bromodomain%20Assay %20Platform %20for %20Drug %20Screening %20and %20Discovery.pdf). In vivo bromodomain inhibition can be determined indirectly by evaluating the amount of protein present of proteins whose genes' transcription is influenced or controlled by the bromodomain protein, for example, the MYCN protein transcription is controlled by BRD4 (J. E. Delmore et al., Cell 2011, 146, 904-917; A. Puissant, Cancer Discov. 2013, 3, 308-323). Bromodomain inhibition may also be predicted by in silico modeling as described below in the Examples. Additionally, the company Promega offers a SYK luminescent assay to determine a compound's ability to inhibit the SYK protein (https://www.promega.com/-/media/files/resources/protocols/kinase-enzyme-appnotes/syk-kinase-assay-protocol.pdf?la=en).
Compounds of the invention were characterized for their ability to inhibit target proteins using third party vendors offering such services. PI3K alpha, gamma, and delta inhibition activity was determined by Thermo Fisher Scientific-Biosciences Life Sciences Solutions, Madison, Wis. The bromodomain protein inhibition (binding domain 1 and 2 of BRD4) as well as SYK inhibition was determined at Reaction Biology Corp., Malvern, Pa. […] The IC50 data (shown below in Table 5) was calculated from a 10-point curve and is expressed in nanomolar concentration (nM) rounded off to the nearest whole number. […]

[2] = tested on: Bone marrow derived macrophages (BMDMs), M1 gene expression; test: M1 marker mRNA in LPS stimulated bone marrow derived macrophages (RT PCR); type: cell-based, murine
Source text: […] M2 markers Mmr, Ym1, Fizz1 and Mgl mRNA and M1 markers I11, 116 and Tnfa mRNA was quantitated by RT PCR. Values are mean±SEM (n=3-4). Expression of gene of interest is normalized to GAPDH. […] The data provide direct evidence that Compound 1 can block the immunosuppressive macrophage M2 gene expression and activate the M1 gene expression and therefore activate antitumor innate immune cell differentiation in vitro.
Relative mRNA expression of IL4 or LPS polarized genes in murine bone marrow derived macrophages (BMDMs) treated with various concentrations of inhibitors in vitro. Conclusion: Compound 3 suppressed in vitro macrophage specific immunosuppressive M2 gene expression markers and augmented macrophage stimulatory immune response M1 genes respectively.

T cells in CT26 tumors = test: Flow cytometric quantification of T cells infiltrating CT26 tumors; type: in vivo, mice
Description: Effect of Compound 3 treatment of CT26 tumor bearing mice in vivo 3 mg/kg by intraperitoneal injection QD (IP) for 14 days on number of CD3+/CD8+ T cells infiltrating the tumor tissue. Conclusion: Compound 3 increased CD8+ T cells in the tumor compartment by 800% in vivo. (n=6, p<0.001, t test) as compared to vehicle control treated mice.
Values represent mean±SEM. Conclusion: Compound 3 decreased CD4+ T cells by 5.6-fold and increased CD8+ T cells in the tumor compartment by 6% in vivo as compared to vehicle control treated mice.

MC38 tumors = test: MC38 tumor growth in immunocompetent murine model; type: in vivo; settings: vs vehicle
Source text: as §1
In contrast to above data, Compound 3 has a marked significant inhibitory effect on CT26, LLC and MC38 tumor growth in immunocompetent murine models. Conclusion: this establishes effect of Compound 3 as immune-oncologically active agent in cancer immunotherapy. In immunocompetent mice with same tumor cell inoculum Compound 3 inhibited tumor growth by from 58-68%. p<0.001 in all experiments compared to vehicle control.

[3] = Table 8, 200 nM, LPS polarized murine BMDMs, control = 1
[4] = CT26 tumors, flow cytometry, vs vehicle

T1 sequence (P48736 whole entry): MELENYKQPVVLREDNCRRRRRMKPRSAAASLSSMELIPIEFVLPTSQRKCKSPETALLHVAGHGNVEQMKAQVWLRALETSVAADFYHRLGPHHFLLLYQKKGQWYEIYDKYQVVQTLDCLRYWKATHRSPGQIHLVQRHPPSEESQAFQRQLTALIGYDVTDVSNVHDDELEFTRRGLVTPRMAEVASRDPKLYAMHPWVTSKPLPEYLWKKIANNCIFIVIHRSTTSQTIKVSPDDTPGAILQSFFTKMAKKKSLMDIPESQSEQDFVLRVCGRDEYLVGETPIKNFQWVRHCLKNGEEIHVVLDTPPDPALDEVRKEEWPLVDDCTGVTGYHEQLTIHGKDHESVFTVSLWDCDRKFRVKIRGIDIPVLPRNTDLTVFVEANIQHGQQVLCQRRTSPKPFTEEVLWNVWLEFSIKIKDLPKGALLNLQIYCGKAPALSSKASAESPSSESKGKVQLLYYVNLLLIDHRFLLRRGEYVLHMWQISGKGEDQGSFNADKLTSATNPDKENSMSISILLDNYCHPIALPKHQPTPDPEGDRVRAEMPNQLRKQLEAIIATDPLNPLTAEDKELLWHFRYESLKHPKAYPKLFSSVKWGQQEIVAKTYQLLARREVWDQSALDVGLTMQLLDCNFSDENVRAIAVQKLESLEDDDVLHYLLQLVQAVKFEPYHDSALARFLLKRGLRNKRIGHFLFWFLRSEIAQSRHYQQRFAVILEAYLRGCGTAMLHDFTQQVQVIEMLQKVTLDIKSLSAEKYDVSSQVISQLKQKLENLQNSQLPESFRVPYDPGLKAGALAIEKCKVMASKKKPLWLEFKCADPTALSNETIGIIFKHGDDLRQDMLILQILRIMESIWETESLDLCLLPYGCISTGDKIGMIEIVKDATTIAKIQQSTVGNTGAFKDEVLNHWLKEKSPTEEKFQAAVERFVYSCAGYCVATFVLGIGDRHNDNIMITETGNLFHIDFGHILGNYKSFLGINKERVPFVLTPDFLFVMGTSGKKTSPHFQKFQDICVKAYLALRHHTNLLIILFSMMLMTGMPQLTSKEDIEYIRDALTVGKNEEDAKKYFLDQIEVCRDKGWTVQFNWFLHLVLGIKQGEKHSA

- IC50 (PI3K γ): 5 to 50 µM
Structure (SMILES): Cc1nn(-c2ccnc(Nc3ccc(-c4csc5c(=O)cc(N6CCOCC6)oc45)cc3)n2)cc1CN1CCC1 [Compound 3, 3-[p-(4-{4-[(1-Azetidinyl)methyl]-3-methyl-1H-pyrazol-1-yl}-2-pyrimidinylamino)phenyl]-5-morpholino-4-oxa-1-thia-7-indenone]
- CD4+ T cells (% of CD3+ T cells) (T cells in LLC tumors; LLC tumor): 23 ± 7, % of CD3+ T cells
- CD8+ T cells (% of CD3+ T cells) (T cells in LLC tumors; LLC tumor): 34 ± 1.1, % of CD3+ T cells
- decrease of CD4+ cells (T cells in LLC tumors; LLC tumor, vs vehicle): 50%
- increase of CD8+ T cells in the tumor compartment (T cells in LLC tumors; vs vehicle): 7%
- tumor growth inhibition across models [1]: 58-68%
- Ifng relative mRNA expression (M1 gene) [2, 3]: 5.043 ± 1.9
- Il1 relative mRNA expression (M1 gene) [2, 3]: 7.19 ± 0.9
- Il6 relative mRNA expression (M1 gene) [2, 3]: 2.5 ± 0.2
- Nos2 relative mRNA expression (M1 gene) [2, 3]: 2.458 ± 0.31
- Tnfa relative mRNA expression (M1 gene) [2, 3]: 2.2 ± 0.3
- macrophage stimulatory immune response M1 genes ([2]; murine BMDMs, LPS polarized, various concentrations): augmented
- increase of CD8+ T cells in the tumor compartment (T cells in CT26 tumors; CT26, 3 mg/kg IP QD 14 days, CD3+/CD8+, vs vehicle): 800%
- decrease of CD4+ T cells (T cells in CT26 tumors; [4]): 5.6 fold
- increase of CD8+ T cells in the tumor compartment (T cells in CT26 tumors; [4]): 6%
- CD3+ T cells (% of live cells) (T cells in CT26 tumors; CT26 tumors, Compound 3 3 mg/kg IP QD 14 days, vehicle 1.1 ± 0.29): 8 ± 0.46 % of live cells
- CD8+ T cells (% of CD3+ T cells) (T cells in CT26 tumors; CT26 tumors, flow cytometry, mean±SEM, n=3, vehicle 56 ± 3.9): 62 ± 2.0 % of CD3+ T cells
- CD4+ T cells (% of CD3+ T cells) (T cells in CT26 tumors; CT26 tumors, flow cytometry, mean±SEM, n=3, vehicle 56 ± 5.29): 9.5 ± 0.7 % of CD3+ T cells
- % Growth inhibition of MC38 tumor (MC38 tumors): 62 +/− 24%
